≈ marks a conversion by molar mass, not a printed value. Read-outs that look alike come from different tables or passages of the source.
Assays:
[1] = test system: Escherichia coli ATCC 25922; experiment: Microbroth dilution: EC50 of ampicillin and ceftriaxone in absence and presence of P1A; format: cell-based; details: absence of P1A; ceftriaxone 0.13 to 128 μg/mL
[2] = test system: Escherichia coli ATCC 25922; experiment: microbe, parasite or virus in culture; format: cell-based
Protocol: (§1) Escherichia coli strain 25922 was cultured from glycerol stocks to logarithmic growth in cation adjusted Mueller-Hinton broth at 37° C. in an atmospheric environment and diluted in cation adjusted Mueller-Hinton broth to achieve a starting in well concentration of 5×10^5 CFU/mL. Serial 2-fold dilution of antimicrobial compounds were prepared in cation adjusted Mueller-Hinton broth to achieve final in well concentration of 128 μg/mL to 0.13 μg/mL for ampicillin and 4 μg/mL 4 ng/mL in the absence or presence of serial 10-fold dilutions of P1A, P3A, or P4A β-lactamase standard, 5 pg/mL to 50 ng/mL for ampicillin and […] to 500 ng/mL for ceftriaxone, ceftazidime, meropenem, cefepime, cefazolin, amp/sulbactam, cefoperazone, cefotaxime, and cefuroxime. Antibiotics were either added to the P1A and incubated for 30 min at 37° C. (pre-incubation) prior to addition of bacteria, or added to the plates following the addition of P1A, P3A, P4A, and bacteria (simultaneous). All concentrations and combinations were evaluated in triplicate in a 96-well plate format that contained media only, compound plus media only (colorimetric control), and untreated bacterial controls.
Next, the 90% effective inhibitory concentration (EC90) of ampicillin, ceftriaxone, ceftazidime, meropenem, cefepime, cefazolin, amp/sulbactam, cefoperazone, cefotaxime, and cefuroxime against Escherichia coli was determined in the absence and presence of P1A, P3A, or P4A β-lactamase. For the purposes of these studies, the stated effective concentration was the initial concentration of ampicillin, ceftriaxone, ceftazidime, meropenem, cefepime, cefazolin, amp/sulbactam, cefoperazone, cefotaxime, and cefuroxime added at the beginning of the experiment, and not a concentration measured during the course of the experiment or at the end of the incubation period.
Specifically, the assay was performed by diluting (2-fold steps) the chosen antibiotic across the rows of a 96 well dish. The MIC was determined as the point at which the diluted antibiotic transitions from killing to not killing the bacteria (in this case, an E. coli strain that is sensitive to all antibiotics). P1A, P3A, and P4A were diluted (10 fold steps) down the columns (the β-lactamase concentrations increased down the columns). […] The latter point was used as the cut-off point. […] However, for this assay, the absolute MIC is not the most important parameter. The most relevant readout was the β-lactamase concentration at which the apparent MIC increases to the maximum amount of antibiotic tested.
(§2) E coli 29522 was incubated overnight in the presence of serial dilutions of antibiotic and the indicated amounts of β-lactamase protein from cell culture supernatants in a 96 well plate. Bacterial density (OD625) of the cultures was measured and the concentration at which the density was reduced by 90% relative to an untreated bacterial control (EC90) was determined. The assay was performed on two separate days and the data reported as Rep1 and Rep2. NA=not assayed.
as §2, with “determined.” for “determined. The assay was performed on two separate days and the data reported as Rep1 and Rep2. NA=not assayed.”

[3] = test system: Escherichia coli ATCC 25922; experiment: microbe, parasite or virus in culture; format: cell-based; details: for EC50 / EC90: Escherichia coli, ATCC25922, no enzyme; for EC90: Table 17, read-out: Ceftriaxone EC90
[4] = test system: Escherichia coli ATCC 25922; experiment: Microbroth dilution: EC50 of ampicillin and ceftriaxone in absence and presence of P1A; format: cell-based; details: for EC50: Escherichia coli, ATCC25922, P1A 0, read-out: Ceftriaxone EC50
Protocol: as §1
The 50% effective inhibitory concentration (EC50) of ampicillin and ceftriaxone against Escherichia coli was determined in the absence and presence of P1A β-lactamase. For the purposes of these studies, the stated effective concentration was the initial concentration of ampicillin or ceftriaxone added at the beginning of the experiment, and not a concentration measured during the course of the experiment or at the end of the incubation period.
Antibiotics were either added to the P1A and incubated for 30 min at 37° C. (Pre-incubation) prior to addition of bacteria, or added to the plates following the addition of P1A and bacteria (Simultaneous). All concentrations and combinations were evaluated in triplicate in a 96-well plate format. Following overnight incubation, the 0D625 of the plates was measured in a Spectramax 384 plate reader and the data were imported into a customized Excel spreadsheet for the determination of the 50% effective inhibitory concentration at (EC50) by linear regression analysis. For the purposes of these studies, the stated effective concentration is the initial concentration of ampicillin or ceftriaxone added at the beginning of the experiment, and not a concentration measured during the course of the experiment or at the end of the incubation period.
Antibiotics were either added to the P1A and incubated for 30 min at 37° C. (Pre-incubation) prior to addition of bacteria, or added to the plates following the addition of P1A and bacteria (Simultaneous). All concentrations and combinations were evaluated in triplicate in a 96-well plate format. Following overnight incubation, the OD625 of the plates was measured in a Spectramax 384 plate reader and the data were imported into a customized Excel spreadsheet for the determination of the 50% effective inhibitory concentration (EC50).
Antibiotics were added to the P1A bacteria (Simultaneous). All concentrations and combinations were evaluated in triplicate in a 96-well plate format. Following overnight incubation, the OD625 of the plates was measured in a Spectramax 384 plate reader and the data were imported into a customized Excel spreadsheet for the determination of the 50% effective inhibitory concentration at (EC50) by linear regression analysis.

[5] = Preliminary enzymatic activity of P1A mutants from B. subtilis supernatants; format: biochemical; details: B. subtilis supernatant, one substrate concentration
Protocol: (§3) β-lactamase activity of the mutants was further characterised from E. coli cell lysates and B. subtilis growth supernatant with ampicillin, cefotaxime, ceftriaxone, cefuroxime, ceftazidime, meropenem and imipenem. The activities were determined using only one substrate concentration of each antibiotic tested. Selection of the antibiotic concentration was done with the antibiotic concentration as high as was practical, [S]>>Km. Based on these preliminary experiments, more accurate kinetic parameters were determined for a couple of mutants from both the site-directed and the random mutagenesis research lines. All the mutant enzymes selected for more detailed study were expressed in the B. subtilis host strain RS303. The cells carrying the mutated proteins were grown in minimal medium over-night after which the cells were harvested and the supernatant was concentrated in 1:10 with Amicon Ultra-4 centrifugal devices, MWCO 10000 (Amicon). Protein concentration in each culture supernatant was estimated from 12% SDS-PAGE (Criterion XT Bis-Tris, BioRad, Calif., USA) using the P1A reference material A18K31 as a standard. Kinetic parameters were measured for cefotaxime, ceftriaxone and cefuroxime for each selected mutant strain. The site-directed mutants were designed to hydrolyze cefotaxime and random mutants were screened with ceftriaxone, which made these antibiotics natural choices for determining kinetic parameters.

[6] = Kinetic parameters of P1A mutant strains; format: biochemical
Protocol: as §3

E. coli (ATCC 25922) = experiment: Microtiter plate antibiotic degradation activity assay; format: cell-based; details: enzyme 10 or 100 ng/ml; antibiotic 10, 100 or 1000 μg/ml; FIG. 8
Protocol: P1A and P4A were screened for degradation of ampicillin, ceftriazone, cefotaxime, cefozolin, cefuroxime, cefoperazone, cefepime, and ceftazidime in a microtiter plate activity assay that was designed to mimic the activity of the beta-lactamases in the gut in the presence of high antibiotic concentrations. The assay was performed by mixing 10, 100 or 1000 μg/ml of the indicated antibiotics with P1A or P4A, at concentrations of 10 or 100 ng/ml. Plates were either incubated for one hour at 37° C. after which E. coli (ATCC 25922) was added, or E. coli was added immediately after the addition of the beta-lactamase enzymes. The plates were incubated overnight and the bacterial growth quantified by measuring the absorbance at 625 nm (OD625) in a Spectramax 384 Plus plate reader. The analysis was performed twice for each beta-lactamase and antibiotic. The beta-lactamase activity of the culture supernatants was determined as positive or negative based on the appearance of bacterial growth in the individual wells. An OD625 of 1.0 or greater indicated maximal bacterial growth, therefore complete antibiotic degradation and high beta-lactamase activity.

[7] = cited from earlier work
[8] = concentrated B. subtilis supernatant
[9] = relative values of P1A activities

CO/N=C(\C(=O)N[C@@H]1C(=O)N2C(C(=O)O)=C(CSc3nc(=O)c(=O)[nH]n3C)CS[C@H]12)c1csc(N)n1 [Ceftriaxone]
ceftriaxone EC99 [1]: < 0.13 µg/mL
Ceftriaxone EC90 ([2]; no enzyme, 2nd value, high test 1 μg/mL, Table 17): 0.06 µg/mL
EC50 ([3]; 1st value, high test 1 μg/mL, Table 16, read-out: Ceftriazone EC50): 0.06 µg/mL (≈ 0.108 µM)
EC90 ([3]; 1st value, high test 1 μg/mL): 0.03 µg/mL (≈ 0.0541 µM)
EC50 ([3]; 2nd value, high test 1 μg/mL, Table 16, read-out: Ceftriazone EC50): 0.06 µg/mL (≈ 0.108 µM)
EC90 ([3]; 2nd value, high test 1 μg/mL): 0.03 µg/mL (≈ 0.0541 µM)
EC50 ([3]; Rep 2, Table 15, read-out: Ceftriaxone EC50): 0.02 µg/mL (≈ 0.0361 µM)
Ceftriaxone EC50 ([3]; no enzyme, Rep 1, Table 15): 0.008 µg/mL
EC50 ([4]; pre-incubation, Table 12): < 0.13 µg/mL
EC50 ([4]; pre-incubation, Table 13): 0.03 µg/mL
EC50 ([4]; simultaneous, Table 12): < 0.13 µg/mL
EC50 ([4]; simultaneous, Table 13): 0.02 µg/mL
EC50 ([4]; simultaneous, Table 14 repeat analysis): 0.03 µg/mL

P1A: Wild type; recombinant Bacillus licheniformis 749/C small exo beta-lactamase (PenP), SEQ ID NO: 1
AMP = ampicillin enzymatic activity [5]: 1.00 multiples of P1A
CAZ = ceftazidime enzymatic activity [5]: 1.00 multiples of P1A
CRO = ceftriaxone enzymatic activity [5]: 1.00 multiples of P1A
CTX = cefotaxime enzymatic activity [5]: 1.00 multiples of P1A
CXM = cefuroxime enzymatic activity [5]: 1.00 multiples of P1A
Cefotaxime Vmax [6, 8]: 1.18 nmol/s
Cefotaxime kcat [6, 8]: 16 s⁻¹
Ceftriaxone Vmax [6, 8]: 2.81 nmol/s
Ceftriaxone kcat [6, 8]: 25 s⁻¹
Cefuroxime Vmax [6, 8]: 1.25 nmol/s
Cefuroxime kcat [6, 8]: 23 s⁻¹
Cefotaxime Vmax [6, 9]: 1.00
Cefotaxime kcat [6, 9]: 1 s⁻¹
Ceftriaxone Vmax [6, 9]: 1.00
Ceftriaxone kcat [6, 9]: 1 s⁻¹
Cefuroxime Vmax [6, 9]: 1.00
Cefuroxime kcat [6, 9]: 1 s⁻¹
inhibition by sulbactam ([2]; amp/sulbactam data): effectively inhibited
activity for ceftriaxone, cefotaxime, and ceftazidime (E. coli (ATCC 25922)): no activity
efficacy in humans with piperacillin/tazobactam [7]: efficacious
more active against ampicillin than ceftriaxone ([4]; microbiological assay): 1,000 fold

Reference: patent US9464280B1, “Beta-lactamases with improved properties for therapy” (priority 2014, dated 2016)
